Source: patent US20110230659A1, “CYCLOBUTYL PURINE DERIVATIVE, ANGIOGENESIS PROMOTING AGENT, LUMEN FORMATION PROMOTING AGENT, NEUROCYTE GROWTH PROMOTING AGENT, AND DRUG” (NATIONAL UNIVERSITY CORPORATION KAGAWA UNIVERSITY, priority 2008, published 2011)

Columns and labels:
[1] = system: human umbilical vein endothelial cells (HUVEC) and normal human dermal fibroblasts; experiment: Measurement of lumen formation (angiogenesis kit, CD31 immunostaining, lumen area); assay type: cell-based
Procedure: The measurement of lumen formation was carried out in the following manner using commercially available angiogenesis kits (Kurabo), each including human umbilical vein endothelial cells (HUVEC) and normal human dermal fibroblasts. First, sample solutions were prepared by dissolving 2-Cl—C.OXT-A in physiological saline so as to achieve predetermined concentrations (1, 10, 100, 500 μmol/l, 1, 5, 10, 50 mmol/l). Then, the sample solutions containing 2-Cl—C.OXT-A at the predetermined concentrations respectively were added to media provided in the kits so that their concentrations became 10 v/v %. Thus, lumen formation media were prepared. The final concentrations of 2-Cl—C.OXT-A in the lumen formation media were 0.1, 1, 10, 50, 100, 500 μmol/l, 1 and 5 mmol/1.
Using each of the lumen formation media, the human umbilical vein endothelial cells (HUVEC) and the normal human dermal fibroblasts were cultured for 10 days. After the culture, the human umbilical vein endothelial cells (HUVEC) were immunostained using a lumen staining kit (for CD31 staining, Kurabo). Then, using NIH Image (image processing and analysis software), the area of a portion stained by the immunostaining (lumen area) was measured. As a control, a medium provided in the kit was used instead of the lumen formation medium to carry out the culture, and the cells were immunostained and the lumen area was measured in the same manner as in the above. Then, using the following equation (II), the relative value of lumen area in the culture using each of the lumen formation media containing 2-Cl—C.OXT-A at the predetermined concentrations was calculated.
In the present example, the relative value of lumen area was calculated in the same manner as in the lumen formation measurement in Example 1, except that the measurement was carried out with respect to four groups respectively using media Nos. 5 to 8 prepared by adding 2-Cl—C.OXT-A and PD98059 to media provided in the above-described angiogenesis kits (Kurabo) so that their concentrations became as shown in Table 2 below. In the group using the medium No. 7, the culture was conducted using the medium No. 7 from the first to third days of the culture and the medium No. 5 from the fourth to tenth days of the culture, and in the group using the medium No. 8, the culture was conducted using the medium No. 8 from the first to third days of the culture and the medium No. 6 from the fourth to tenth days of the culture.
In the present example, the relative value of lumen area was calculated in the same manner as in the lumen formation measurement in Example 1, except that the measurement was carried out with respect to six groups respectively using media Nos. 15 to 20 prepared by adding 2-Cl—C.OXT-A, VEGF (positive control), and SU5416 to media provided in the above-described angiogenesis kit (Kurabo) so that their concentrations became as shown in Table 4 below. In the group using the medium No. 16, the culture was conducted using the medium No. 16 from the first to third days of the culture and the medium No. 15 from the fourth to tenth days of the culture; in the group using the medium No. 18, the culture was conducted using the medium No. 18 from the first to third days of the culture and the medium No. 17 from the fourth to tenth days of the culture; and in the group using the medium No. 20, the culture was conducted using the medium No. 20 from the first to third days of the culture and the medium No. 19 from the fourth to tenth days of the culture.

[2] = system: Human umbilical vein endothelial cells (HUVEC); experiment: Measurement of cell proliferation (Cell Counting Kit-8); assay type: cell-based; conditions: HUVEC, 48 hours
Procedure: Sample solutions were prepared by dissolving 2-Cl—C.OXT-A in physiological saline so as to achieve predetermined concentrations (0.5, 1, 5, 10, 50, 100 mmol/l). Then, the sample solutions containing 2-Cl—C.OXT-A at the predetermined concentrations respectively were added to HuMedia-EB2 media (Kurabo) to which 2 v/v % inactivated fetal bovine serum (FBS) had been added so that their concentrations became 10 v/v %. Thus, cell proliferation media were prepared. The final concentrations of 2-Cl—C.OXT-A in the cell proliferation media were 50, 100, 500 μmol/l, 1, 5, and 10 mmol/1.
Human umbilical vein endothelial cells (HUVEC) suspended in a HuMedia-EG2 medium (Kurabo) were inoculated into each of gelatin-coated wells of a 96-well plate at a density of 3×10^3 cells per well, and cultured for 24 hours. 24 hours after the start of the culture, the medium was removed, and 100 μl of the cell proliferation medium was added to each well. The cells were cultured for another 48 hours. After the completion of the culture, a color reaction was caused using a Cell Counting Kit-8 (Dojindo Laboratories). 2 hours after the start of the reaction, the absorbance at 450 nm was measured using a microplate reader. As a control, a HuMedia-EB2 medium (Kurabo) to which 2 v/v % inactivated fetal bovine serum (FBS) had been added was used instead of the cell proliferation medium to carry out the culture, and a color reaction was caused and the absorbance was measured in the same manner as in the above. Then, using the following equation (I), the relative absorbance in the culture using each of the cell proliferation media containing 2-Cl—C.OXT-A at the predetermined concentrations was calculated.

Compound: Nc1nc(Cl)nc2c1ncn2C1CC(CO)C1CO (stereo not drawn) [2-Cl—C.OXT-A, 6-amino-2-chloro-9-[trans-trans-2,3-bis(hydroxymethyl)cyclobutyl]purine]
- relative value of lumen area compared with control ([1]; Example 7, medium No. 6: only 2-Cl—C.OXT-A 10 μmol/l): about 3 fold
- lumen area ([1]; Example 9, medium No. 17: 2-Cl—C.OXT-A 10 μmol/l): increased markedly
- relative value of lumen area ([1]; final concentration 100 nmol/l to 1 mmol/l, versus control): larger than that of the control
- stained area (lumen formation, immunostaining photographs) ([1]; final concentration 10 μmol/l to 1 mmol/l, 10 days, versus control): larger than that in the control
- relative value of lumen area ([1]; final concentration 100 μmol/l, highest activity): 3.8
- lumen formation promoting-activity compared with VEGF (relative value of lumen area) ([1]; final concentration 10 to 500 μmol/l, VEGF 10 ng/ml): higher than that in Comparative Example 7
- lumen formation promoting-activity compared with VEGF (photographs) ([1]; final concentrations 10 and 100 μmol/l, VEGF 10 ng/ml): higher than that in Comparative Example 7
- relative absorbance (cell proliferation) ([2]; final concentration 50 μmol/l to 1 mmol/l, relative to control): higher than 1
- cell proliferation ([2]; final concentration 5 mmol/l or higher): suppressed in a concentration-dependent manner
